In patent US20070219186A1, “Pyrazolo[1,5-A]pyrimidine derivatives and methods of use thereof” (priority 2006, published 2007):
Read-outs that look alike come from different tables or passages of the source.

Tests used:
human B-Raf = target: T1, human B-Raf (Homo sapiens, UniProt P15056); test: B-Raf Kinase to MEK1 ELISA; assay type: biochemical; details: for inhibition at 10 µM: read-out: % Inhib./10 uM
T1 construct: Flag; GST; made in house; host or cells: Sf9 insect cells (B-Raf); E. coli (MEK1-GST)
T1 sequence (P15056 whole entry): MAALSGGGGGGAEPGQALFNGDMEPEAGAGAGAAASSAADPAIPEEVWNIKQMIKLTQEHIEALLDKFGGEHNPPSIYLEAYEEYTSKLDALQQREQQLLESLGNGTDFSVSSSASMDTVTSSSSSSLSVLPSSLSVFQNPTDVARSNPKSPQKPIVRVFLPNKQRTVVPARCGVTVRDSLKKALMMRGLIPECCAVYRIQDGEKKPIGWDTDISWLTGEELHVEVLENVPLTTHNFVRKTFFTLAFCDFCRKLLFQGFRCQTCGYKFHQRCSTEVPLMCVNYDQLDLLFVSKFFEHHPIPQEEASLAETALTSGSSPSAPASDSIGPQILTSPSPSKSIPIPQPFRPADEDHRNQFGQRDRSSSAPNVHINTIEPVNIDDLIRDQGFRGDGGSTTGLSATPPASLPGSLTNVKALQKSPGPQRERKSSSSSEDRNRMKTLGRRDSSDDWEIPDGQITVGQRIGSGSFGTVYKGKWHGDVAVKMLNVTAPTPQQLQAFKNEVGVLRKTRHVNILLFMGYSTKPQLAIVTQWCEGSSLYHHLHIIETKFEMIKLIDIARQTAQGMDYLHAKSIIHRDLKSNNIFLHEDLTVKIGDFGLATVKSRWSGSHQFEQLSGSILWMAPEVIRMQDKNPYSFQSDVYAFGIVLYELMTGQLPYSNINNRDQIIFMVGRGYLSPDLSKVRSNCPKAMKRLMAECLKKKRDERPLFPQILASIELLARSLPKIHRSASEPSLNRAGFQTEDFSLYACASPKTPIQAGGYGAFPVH
Outline: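 Read-out is a DELFIA europium signal from phospho-MEK1 (Ser217/221) antibody after capture of GST-MEK1 (50 nM final) on anti-GST plates. Phosphorylation comes from Sf9-expressed Flag/GST human B-Raf (~20 ng) with ATP/MgCl2, 60 min RT, pH 7.2 MOPS.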

[1] = median, cpd concentrations from 10 μM to 30 nM in half log dilutions, read-out: Median IC50

SMILES	melting point [°C]	IC50 (human B-Raf; [1]) [nM]	inhibition at 10 µM (human B-Raf) [%]	IC50 (human B-Raf) [nM]
CCOC(=O)c1cnn2c(-c3cccc(NC(=O)Nc4ccc(Br)c(Cl)c4)c3)ccnc12 [Example 83, ethyl 7-[3-({[(4-bromo-3-chlorophenyl)amino]carbonyl}amino)phenyl]pyrazolo[1,5-a]pyrimidine-3-carboxylate]	–	600	71	–
COCCC(=O)Nc1cccc(-c2cnn3c(-c4cccc(NC(=O)c5cccc(C(F)(F)F)c5)c4)ccnc23)c1 [Example 254, N-[3-(3-{3-[(3-methoxypropanoyl)amino]phenyl}pyrazolo[1,5-a]pyrimidin-7-yl)phenyl]-3-(trifluoromethyl)benzamide]	–	90	82	–
O=C(Nc1cccc(-c2ccnc3cc(-c4ccncc4)nn23)c1)c1cc(Cl)ccc1Br [Example 241, 2-bromo-5-chloro-N-[3-(2-pyridin-4-ylpyrazolo[1,5-a]pyrimidin-7-yl)phenyl]benzamide]	–	> 10000	34	–
O=C(Nc1cccc(-c2ccnc3cc(-c4cccc(C(F)(F)F)c4)nn23)c1)c1cccc(C(F)(F)F)c1 [Example 137, 3-(trifluoromethyl)-N-(3-{2-[3-(trifluoromethyl)phenyl]pyrazolo[1,5-a]pyrimidin-7-yl}phenyl)benzamide]	–	> 10000	–	–
CN(C)CC#Cc1cnn2c(-c3cccc(NC(=O)c4cccc(C(F)(F)F)c4)c3)ccnc12 [Example 205, N-(3-{3-[3-(dimethylamino)prop-1-yn-1-yl]pyrazolo[1,5-a]pyrimidin-7-yl}phenyl)-3-(trifluoromethyl)benzamide]	–	1730	81	–
O=C(Cc1nnn[nH]1)Nc1ccc(-c2cnn3c(-c4cccc(NC(=O)c5cccc(C(F)(F)F)c5)c4)ccnc23)cc1 [Example 233, N-[3-(3-{4-[(1H-tetrazol-5-ylacetyl)amino]phenyl}pyrazolo[1,5-a]pyrimidin-7-yl)phenyl]-3-(trifluoromethyl)benzamide]	–	1000	96	–
Cn1cccc1C(=O)Nc1cccc(-c2ccnc3cc(-c4ccncc4)nn23)c1 [Example 236, 1-methyl-N-[3-(2-pyridin-4-ylpyrazolo[1,5-a]pyrimidin-7-yl)phenyl]-1H-pyrrole-2-carboxamide]	–	–	50	–
CCOC(=O)c1cnn2c(-c3cccc(NC(=O)Cc4cccc(OC)c4)c3)ccnc12 [Example 96, ethyl 7-(3-{[(3-methoxyphenyl)acetyl]amino}phenyl)pyrazolo[1,5-a]pyrimidine-3-carboxylate]	–	> 10000	0	–
O=C(Nc1cccc(-c2ccnc3c(-c4cccnc4)cnn23)c1)c1cccc(C(F)(F)F)c1 [Example 155, N-[3-(3-pyridin-3-ylpyrazolo[1,5-a]pyrimidin-7-yl)phenyl]-3-(trifluoromethyl)benzamide]	–	–	103	95
CN(C)Cc1cccc(-c2cnn3c(-c4cccc(NC(=O)c5cccc(C(F)(F)F)c5)c4)ccnc23)c1 [Example 273, N-[3-(3-{3-[(dimethylamino)methyl]phenyl}pyrazolo[1,5-a]pyrimidin-7-yl)phenyl]-3-(trifluoromethyl)benzamide]	–	43.8	97	–
CCOC(=O)c1cnn2c(-c3cccc(NC(=O)Cc4cccc(Cl)c4)c3)ccnc12 [Example 94, ethyl 7-(3-{[(3-chlorophenyl)acetyl]amino}phenyl)pyrazolo[1,5-a]pyrimidine-3-carboxylate]	–	> 10000	14	–
O=C(Nc1ccc(F)c(-c2ccnc3cc(-c4ccncc4)nn23)c1)c1cccc(C(F)(F)F)c1 [Example 317, N-[4-fluoro-3-(2-pyridin-4-ylpyrazolo[1,5-a]pyrimidin-7-yl)phenyl]-3-(trifluoromethyl)benzamide]	–	42.3	100	–

More lines, now with the values ahead:

melting point [°C]	IC50 (human B-Raf; [1]) [nM]	inhibition at 10 µM (human B-Raf) [%]	IC50 (human B-Raf) [nM]	SMILES
183 to 185	1330	63	–	CN1CCC(c2cnn3c(-c4cccc(NC(=O)c5cccc(C(F)(F)F)c5)c4)ccnc23)CC1 [Example 309, N-{3-[3-(1-methylpiperidin-4-yl)pyrazolo[1,5-a]pyrimidin-7-yl]phenyl}-3-(trifluoromethyl)benzamide]
163 to 165	851	68	–	CN1CC=C(c2cnn3c(-c4cccc(NC(=O)c5cccc(C(F)(F)F)c5)c4)ccnc23)CC1 [Example 306, N-{3-[3-(1-methyl-1,2,3,6-tetrahydropyridin-4-yl)pyrazolo[1,5-a]pyrimidin-7-yl]phenyl}-3-(trifluoromethyl)benzamide]
–	> 10000	–	–	O=C(Nc1cccc(-c2ccnc3cc(-c4cccnc4)nn23)c1)c1cccc(C(F)(F)F)c1 [Example 152, N-[3-(2-pyridin-3-ylpyrazolo[1,5-a]pyrimidin-7-yl)phenyl]-3-(trifluoromethyl)benzamide]
–	120	96	–	O=C(Nc1cccc(-c2ccnc3cc(N4CCOCC4)nn23)c1)Nc1cccc(C(F)(F)F)c1 [Example 199, N-[3-(2-morpholin-4-ylpyrazolo[1,5-a]pyrimidin-7-yl)phenyl]-N′-[3-(trifluoromethyl)phenyl]urea]
–	> 20000	27	–	CCOC(=O)c1cnn2c(-c3cccc(NC(=O)c4cccc(C#N)c4)c3)ccnc12 [Example 13, ethyl 7-{3-[(3-cyanobenzoyl)amino]phenyl}pyrazolo[1,5-a]pyrimidine-3-carboxylate]
–	–	75	2190	COC(=O)c1ccc(-c2cnn3c(-c4cccc(NC(=O)c5cccc(C(F)(F)F)c5)c4)ccnc23)cc1 [Example 297, methyl 4-[7-(3-{[3-(trifluoromethyl)benzoyl]amino}phenyl)pyrazolo[1,5-a]pyrimidin-3-yl]benzoate]
–	> 10000	4	–	CCOC(=O)c1c(C)nn2c(-c3cccc(NC(=O)c4ccc(C)c(C(F)(F)F)c4)c3)ccnc12 [Example 64, ethyl 2-methyl-7-(3-{[4-methyl-3-(trifluoromethyl)benzoyl]amino}phenyl)pyrazolo[1,5-a]pyrimidine-3-carboxylate]
–	2300	58	–	CCOC(=O)c1cnn2c(-c3cccc(NC(=O)Nc4ccc5ccccc5c4)c3)ccnc12 [Example 21, ethyl 7-(3-{[(2-naphthylamino)carbonyl]amino}phenyl)pyrazolo[1,5-a]pyrimidine-3-carboxylate]
